The values that follow come from patent US4115385A, “Antibacterial 3-(5-tetrazolyl) penam compounds” (Pfizer Inc., priority 1977, dated 1978).

What is called MIC is the least concentration at which growth counts as inhibited.

Structures are written as SMILES. Values after ≈ are worked out from the molar mass of the structure shown.

One experiment deals with Streptococcus pyogenes. Briefly: In vitro minimum inhibitory concentration (MIC) vs. Strep. pyogenes. It counts as cell-based. As to conditions: Streptococcus pyogenes, read-out: MIC vs. Strep. pyogenes. In a few lines: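 Broth inoculated with bacteria and test antibiotic, incubated overnight and read visually; MIC is the lowest concentration preventing turbidity. Test preparations also contain some of the corresponding tetrazole tautomer.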
Consider `CC1(C)S[C@@H]2[C@H](NC(=O)C(C(=O)O)c3cccs3)C(=O)N2[C@H]1c1nnn[nH]1` (some centres unmarked) [2-carboxy-2-(2-thienyl)acetyl, 6-(2-Carboxy-2-[2-thienyl]acetamido)-2,2-dimethyl-3-(5-tetrazolyl)penam], for which the MIC was 0.1 µg/mL (≈ 0.245 µM). As to `CC1(C)S[C@@H]2[C@H](NC(=O)C(C(=O)O)c3ccsc3)C(=O)N2[C@H]1c1nnn[nH]1` (some centres unmarked) [2-carboxy-2-(3-thienyl)acetyl, 6-(2-Carboxy-2-[3-thienyl]acetamido)-2,2-dimethyl-3-(5-tetrazolyl)penam], the minimal inhibitory concentration (MIC) worked out at 0.1 µg/mL (≈ 0.245 µM). Still for that read-out and setting: the same measure for `CCOc1ccc2ccccc2c1C(=O)N[C@@H]1C(=O)N2[C@@H]1SC(C)(C)[C@@H]2c1nnn[nH]1` [2-ethoxy-1-naphthoyl, 6-(2-Ethoxy-1-naphthamido)-2,2-dimethyl-3-(5-tetrazolyl)penam]: below 0.1 µg/mL; for `CCNC(=O)N[C@@H]1C(=O)N2[C@@H]1SC(C)(C)[C@@H]2c1nnn[nH]1` [3-ethylcarbamoyl, 6-(3-ethylureido)-2,2-dimethyl-3-(5-tetrazolyl)penam]: below 0.1 µg/mL. For the compound `CC1(C)S[C@@H]2[C@H](NC(=O)Nc3ccccc3)C(=O)N2[C@H]1c1nnn[nH]1` [3-phenylcarbamoyl, 6-(3-Phenylureido)-2,2-dimethyl-3-(5-tetrazolyl)penam], the MIC was below 0.1 µg/mL. Still for that read-out and setting: the figure for `CC1(C)S[C@@H]2[C@H](NC(=O)[C@H](NC(=O)CNC(=O)c3ccccc3)c3ccccc3)C(=O)N2[C@H]1c1nn[nH]n1` [6-(2-D-[2-Benzamidoacetamido]-2-phenylacetamido)-2,2-dimethyl-3-(5-tetrazolyl)penam] is below 0.1 µg/mL. For the compound `CC1(C)S[C@@H]2[C@H](NC(=O)C(NC(=O)CSC3=NCCN3)c3ccccc3)C(=O)N2[C@H]1c1nn[nH]n1` (some centres unmarked) [6-(2-[2-(Δ^1 -Imidazolin-2-ylthio)acetamido]-2-phenylacetamido)-2,2-dimethyl-3-(5-tetrazolyl)penam], the MIC is below 0.1 µg/mL. In the case of `CCNC(=O)NCC(=O)N[C@@H](C(=O)N[C@@H]1C(=O)N2[C@@H]1SC(C)(C)[C@@H]2c1nnn[nH]1)c1ccccc1` [6-(D-2-[2-(3-Ethylureiod)acetamido]-2-phenylacetamido)-2,2-dimethyl-3-(5-tetrazolyl)penam], the minimal inhibitory concentration (MIC) is below 0.1 µg/mL. `CC1(C)S[C@@H]2[C@H](NC(=O)[C@H](NC(=O)Cc3ccc(N)cc3)c3ccccc3)C(=O)N2[C@H]1c1nn[nH]n1` [6-(D-2-[2-(4-Aminophenyl)acetamido]-2-phenylacetamido)-2,2-dimethyl-3-(5-tetrazolyl)penam]: the MIC was below 0.1 µg/mL.

For the compound `CC1(C)S[C@@H]2[C@H](NC(=O)[C@H](NC(=O)CNC(=N)c3ccncc3)c3ccc(O)cc3)C(=O)N2[C@H]1c1nnn[nH]1` [6-(D-2-[2-(4-Pyridinecarboxamidino)acetamido]-2-(p-hydroxyphenyl]acetamido)-2,2-dimethyl-3-(5-tetrazolyl)penam], the MIC is below 0.1 µg/mL. Same read-out and setting: the same measure for `CC1(C)S[C@@H]2[C@H](NC(=O)[C@H](NC(=O)Cc3ccc([N+](=O)[O-])cc3)c3ccccc3)C(=O)N2[C@H]1c1nn[nH]n1` [6-(D-2-[2-(4-nitrophenyl)acetamido]-2-phenylacetamido)-2,2-dimethyl-3-(5-tetrazolyl)penam]: below 0.1 µg/mL; for `CC1(C)S[C@@H]2[C@H](NC(=O)[C@H](NC(=O)CNC(=N)c3ccncc3)c3ccccc3)C(=O)N2[C@H]1c1nnn[nH]1` [6-(D-2-[2-(4-pyridinecarboxamidino)acetamido]-2-phenylacetamido)-2,2-dimethyl-3-(5-tetrazolyl)penam]: below 0.1 µg/mL; for `CC1(C)S[C@@H]2[C@H](NC(=O)[C@H](NC(=O)CNC(=N)c3ccccc3)c3ccccc3)C(=O)N2[C@H]1c1nnn[nH]1` [6-(D-2-[2-(Benzamidino)acetamido]-2-phenylacetamido)-2,2-dimethyl-3-(5-tetrazolyl)penam]: below 0.1 µg/mL. On the same count and under the same terms, the same measure for `CC1(C)S[C@@H]2[C@H](NC(=O)[C@H](NC(=O)CCl)c3ccco3)C(=O)N2[C@H]1c1nn[nH]n1` [6-(D-2-[2-Chloroacetamido]-2-[2-furyl]acetamido)-2,2-dimethyl-3-(5-tetrazolyl)penam]: below 0.1 µg/mL; for `CC1(C)S[C@@H]2[C@H](NC(=O)[C@H](NC(=O)CN)c3ccc(O)cc3)C(=O)N2[C@H]1c1nnn[nH]1` [6-(D-2-[2-aminoacetamido]-2-[4-hydroxyphenyl]acetamido)-2,2-dimethyl-3-(5-tetrazolyl)penam]: below 0.1 µg/mL; for `CC1(C)S[C@@H]2[C@H](NC(=O)[C@H](NC(=O)C(=Cc3ccc(Cl)cc3)C(=O)O)c3ccccc3)C(=O)N2[C@H]1c1nnn[nH]1` [6-(D-2-[2-carboxy-2(p-chlorophenyl)acrylamido]-2-phenylacetamido)-2,2-dimethyl-3-(5-tetrazolyl)penam]: below 0.1 µg/mL. The same measure, in the same setting: the figure for `CC1(C)S[C@@H]2[C@H](NC(=O)[C@H](NC(=O)C(=Cc3cccs3)C(=O)O)c3ccccc3)C(=O)N2[C@H]1c1nnn[nH]1` [6-(D-2-[2-carboxy-3-(2-thienyl)acrylamido]-2-phenylacetamido)-2,2-dimethyl-3-(5-tetrazolyl)penam] is below 0.1 µg/mL.

The experiment is the same for the next values; noted with them: Streptococcus pyogenes; Examples; read-out: MIC against Strep. pyogenes.
Turning to `CC1(C)S[C@@H]2[C@H](NC(=O)[C@H](NC(=O)Nc3ccccc3)c3ccc(O)cc3)C(=O)N2[C@H]1c1nnn[nH]1` [6-(2-[3-Phenylureido]-2-[p-hydroxyphenyl]acetamido)-2,2-dimethyl-3-(5-tetrazolyl)penam], the MIC was below 0.1 µg/mL. Still for that read-out and setting: the same measure for `CC(C)(C)C(=O)OCn1nnc([C@@H]2N3C(=O)[C@@H](NC(=O)[C@H](N)c4ccc(O)cc4)[C@H]3SC2(C)C)n1` [6-(D-2-Amino-2-[p-hydroxyphenyl]acetamido)-2,2-dimethyl-3-(2-[pivaloyloxymethyl]tetrazol-5-yl)penam]: 0.39 µg/mL (≈ 0.774 µM).

The same experiment, now with this note: Streptococcus pyogenes; Table II; two-fold serial dilution, Brain-Heart Infusion broth, overnight; read-out: MIC vs. Strep. pyogenes.
With `CC1(C)S[C@@H]2[C@H](NC(=O)C(N)c3ccc(N)cc3)C(=O)N2[C@H]1c1nnn[nH]1` (some centres unmarked) [2-amino-2-(4-aminophenyl)acetyl], the MIC came out at 0.039 µg/mL (≈ 0.1 µM).

Take `CC1(C)S[C@@H]2[C@H](NC(=O)C(C(=O)O)c3ccccc3)C(=O)N2[C@H]1c1nnn[nH]1` (some centres unmarked) [2-carboxy-2-phenylacetyl, 6-(2-Carboxy-2-phenylacetamido)-2,2-dimethyl-3-(5-tetrazolyl)penam]: the minimal inhibitory concentration (MIC) stood at 0.002 µg/mL (≈ 0.00497 µM). As for `CC1(C)S[C@@H]2[C@H](NC(=O)C(c3ccccc3)S(=O)(=O)O)C(=O)N2[C@H]1c1nnn[nH]1` (some centres unmarked) [2-sulfo-2-phenylacetyl, 6-(2-Sulfo-2-phenylacetamido)-2,2-dimethyl-3-(5-tetrazolyl)penam], the minimum inhibitory concentration (MIC) was determined as 200 µg/mL (≈ 456 µM). As for `CC1(C)S[C@@H]2[C@H](NC(=O)/C=C\C(N)=O)C(=O)N2[C@H]1c1nnn[nH]1` [3-(carbamoyl)acryloyl, 6-(3-[Carbamoyl]acrylamido)-2,2-dimethyl-3-(5-tetrazolyl)penam], the MIC is below 0.1 µg/mL. On the same count and under the same terms, the same measure for `C/C(CN)=C(\C(=O)NC1C(=O)N2C(c3nnn[nH]3)C(C)(C)S[C@H]12)c1ccccc1` (some centres unmarked) [3-aminomethyl-2-phenylisocrotonoyl, 6-(3-Aminomethyl-2-phenylisocrotonamido)-2,2-dimethyl-3-(5-tetrazolyl)penam]: 12.5 µg/mL (≈ 30.2 µM). For the compound `CC1(C)S[C@@H]2[C@H](NC(=O)CNC(=O)NC(=N)Cc3ccc(Cl)cc3)C(=O)N2[C@H]1c1nnn[nH]1` [6-(2-[3-(2-[p-Chlorophenyl]acetimidoyl)ureido]acetamido)-2,2-dimethyl-3-(5-tetrazolyl)penam], the minimal inhibitory concentration (MIC) came out at 100 µg/mL (≈ 203 µM). The same measure, in the same setting: the same measure for `Cc1onc(-c2ccccc2Cl)c1C(=O)N[C@@H]1C(=O)N2[C@@H]1SC(C)(C)[C@@H]2c1nnn[nH]1` [6-(3-[2-Chlorophenyl]-5-methyl-4-isoxazolecarboxamido)-2,2-dimethyl-3-(5-tetrazolyl)penam]: below 0.1 µg/mL; for `CC1(C)S[C@@H]2[C@H](NC(=O)[C@H](NC(=O)CNC(=O)NC(=N)N)c3ccc(O)cc3)C(=O)N2[C@H]1c1nnn[nH]1` [6-(D-2-[2-(3-[guanyl]ureido)acetamido]-2-[4-hydroxyphenyl]acetamido)-2,2-dimethyl-3-(5-tetrazolyl)penam]: 0.004 µg/mL (≈ 0.00753 µM); for `CC1(C)S[C@@H]2[C@H](NC(=O)[C@H](NC(=O)COc3ccccc3)c3ccc(O)cc3)C(=O)N2[C@H]1c1nnn[nH]1` [6-(D-2-[2-Phenoxyacetamido]-2-[4-hydroxyphenyl]acetamido)-2,2-dimethyl-3-(5-tetrazol-5-yl)penam]: 0.2 µg/mL (≈ 0.382 µM). For `CCN=C(NCC)SCC(=O)NC(=O)N[C@@H](C(=O)N[C@@H]1C(=O)N2[C@@H]1SC(C)(C)[C@@H]2c1nn[nH]n1)c1ccccc1` [6-(D-2-[3-(2-(N,N'-diethylguanylthio]acetyl)ureido]-2-phenylacetamido)-2,2-dimethyl-3-(5-tetrazolyl)penam], the minimal inhibitory concentration (MIC) came to 0.004 µg/mL (≈ 0.00679 µM). On the same count and under the same terms, the same measure for `CC1(C)S[C@@H]2[C@H](NC(=O)[C@H](NC(=O)NC(=O)CSC(=N)N)c3ccccc3)C(=O)N2[C@H]1c1nn[nH]n1` [6-(D-2-[3-(2-[Guanylthio]acetyl)ureido]-2-phenylacetamido)-2,2-dimethyl-3-(5-tetrazol-5-yl)penam]: 0.004 µg/mL (≈ 0.00751 µM); for `CC1(C)S[C@@H]2[C@H](NC(=O)[C@H](NC(=O)NC(=N)N)c3ccc(O)cc3)C(=O)N2[C@H]1c1nnn[nH]1` [6-(D-2-[3-guanylureido]-2-[4-hydroxyphenyl]acetamido)-2,2-dimethyl-3-(5-tetrazolyl)-penam]: 0.004 µg/mL (≈ 0.00843 µM).

Staying with this experiment, now noted: Streptococcus pyogenes; Table IV; read-out: MIC vs. Strep. pyogenes.
In the case of `CC1(C)S[C@@H]2[C@H](N3CN[C@H](c4ccc(O)cc4)C3=O)C(=O)N2[C@H]1c1nnn[nH]1` [6-(5-Oxo-4-[p-hydroxyphenyl]-1-imidazolidinyl)-2,2-dimethyl-3-(5-tetrazolyl)penam], the MIC stood at 6.25 µg/mL (≈ 15.6 µM).

For the compound `CC1(C)S[C@@H]2[C@H](N3CN[C@H](c4ccccc4)C3=O)C(=O)N2[C@H]1c1nnn[nH]1` [6-(5-Oxo-4-phenyl-1-imidazolidinyl)-2,2-dimethyl-3-(5-tetrazolyl)penam], the MIC is 6.25 µg/mL (≈ 16.2 µM).

For `CC(C)(C)C(=O)OCn1nnc([C@@H]2N3C(=O)[C@@H](NC(=O)[C@H](N)c4ccc(O)cc4)[C@H]3SC2(C)C)n1` [6-(D-2-Amino-2-[p-hydroxyphenyl]acetamido)-2,2-dimethyl-3-(2-[pivaloyloxymethyl]tetrazol-5-yl)penam], the MIC came to 0.39 µg/mL (≈ 0.774 µM).

The same experiment, now with this note: Table II; two-fold serial dilution, Brain-Heart Infusion broth, overnight.
Turning to `CC1(C)SC2C(NC(=O)[C@@H](c3ccccc3)S(N)(=O)=O)C(=O)N2C1c1nnn[nH]1` (stereo partly drawn) [2-sulfamoyl-2-phenylacetyl, 6-(D-2-Sulfamoyl-2-phenylacetamido)-2,2-dimethyl-3-(5-tetrazolyl)penam], the “MIC vs. Strep. pyogenes” value was below 0.1 µg/mL.
